Measurements: PMC5571287 (Antimicrobial Agents and Chemotherapy, 2017)
Read-outs that look alike come from different tables or passages of the source.

Assays:
RSV A2 [1] = test: RSV F protein cell-based ELISA in BEAS-2B cells, washout / nonwashout; settings: human respiratory syncytial virus, read-out: IC50, F protein expressed on cell surfaces
Experimental: Approximately 72 h after BEAS-2B cells were seeded in 96-well plates (at 4 × 10^4/ml; 100 μl/well), the medium in the plates was removed and replaced with 200 μl of fresh LHC-8 medium. […] For nonwashout plates, the compounds and DMSO (1 μl/well) were applied immediately after infection. On day 3 postinfection, supernatant was aspirated and the cells were fixed with 4% formaldehyde (100 μl in PBS solution) for 20 min at room temperature (RT), washed three times with wash buffer (WB) (200 μl; PBS containing 0.05% Tween 20), and incubated with blocking buffer (100 μl; 5% bovine serum albumin [BSA] in wash buffer) for 1 h. […] Abcam plc, Cambridge, UK). After a washing, cells were incubated with a horseradish peroxidase (HRP)-conjugated anti-mouse IgG antibody (50 μl/well; 1:2,000, Abcam) for 1 h. Tetramethylbenzidine (TMB) substrate (50 μl) was then added after two washings with WB and one with PBS, and the reaction was stopped by the addition of aqueous sulfuric acid (2 N; 50 μl/well). The resultant signal was determined colorimetrically (OD at 450 nm [OD450] with a reference wavelength of 655 nm) in a microplate reader (Multiskan FC; Thermo Fisher Scientific). Cells were then washed, and 0.5% crystal violet solution ([…]) was applied for 30 min. […] The measured F protein signals (OD450 − OD655 readings) were corrected for cell number (OD595 readings) by dividing the OD450–655 by the OD595 readings.

[2] = tested on: Herpes simplex virus 1 (HF strain); test: microbe, parasite or virus in culture; type: cell-based; settings: Herpes simplex virus 1, Vero
RSVB 1000 = settings: human respiratory syncytial virus
in vitro [3] = settings: rhesus monkey
[4] = tested on: known RSV A clinical isolates; test: CPE assays, known RSV A clinical isolates in HEp-2; type: cell-based; settings: human respiratory syncytial virus, read-out: IC50, range over known RSV A clinical isolates
Experimental: For RSV A 2001/3-12, 1998/3-2, and USU⃥v1225, CPE was induced in HEp-2 cells for 7 days and the plates were then stained with neutral red dye for approximately 2 h. The intracellular incorporated dye was extracted in 50:50 Sorensen citrate buffer-ethanol and the absorbance read on a spectrophotometer. The optical density (OD) of test wells was converted to percentage of cell and virus controls. […] The virus inocula were ∼63 50% cell culture infectious doses (CCID50) per well for 2001/3-12, ∼40 CCID50/well for 1998/3-2, and ∼32 CCID50/well for USU\v1225. This assay was conducted in Utah State University (Logan, UT).
(§1) For known clinical strains (RSV A 1997/12-35, 2001/2-20, 200/3-4, and Memphis 37), a 384-well-format resazurin-based CPE assay was conducted.

RSVA 492 = settings: human respiratory syncytial virus
PIV3 (C243 strain) = test: organism not typed; type: cell-based, parainfluenza virus 3; settings: PIV3, LLC-MK2 7.1
human polymerase β = human polymerase β (Homo sapiens, UniProt P06746); test: Human polymerase inhibition in vitro (data not shown); type: biochemical; settings: up to 1 μM
[5] = tested on: Influenza virus H1N1 (A/PR/34 strain); test: microbe, parasite or virus in culture; type: cell-based; settings: Influenza virus H1N1, A549
human polymerase γ = human polymerase γ (Homo sapiens, UniProt P54098); test: Human polymerase inhibition in vitro (data not shown); type: biochemical; settings: up to 1 μM
Sequence of human polymerase γ (P54098 whole entry): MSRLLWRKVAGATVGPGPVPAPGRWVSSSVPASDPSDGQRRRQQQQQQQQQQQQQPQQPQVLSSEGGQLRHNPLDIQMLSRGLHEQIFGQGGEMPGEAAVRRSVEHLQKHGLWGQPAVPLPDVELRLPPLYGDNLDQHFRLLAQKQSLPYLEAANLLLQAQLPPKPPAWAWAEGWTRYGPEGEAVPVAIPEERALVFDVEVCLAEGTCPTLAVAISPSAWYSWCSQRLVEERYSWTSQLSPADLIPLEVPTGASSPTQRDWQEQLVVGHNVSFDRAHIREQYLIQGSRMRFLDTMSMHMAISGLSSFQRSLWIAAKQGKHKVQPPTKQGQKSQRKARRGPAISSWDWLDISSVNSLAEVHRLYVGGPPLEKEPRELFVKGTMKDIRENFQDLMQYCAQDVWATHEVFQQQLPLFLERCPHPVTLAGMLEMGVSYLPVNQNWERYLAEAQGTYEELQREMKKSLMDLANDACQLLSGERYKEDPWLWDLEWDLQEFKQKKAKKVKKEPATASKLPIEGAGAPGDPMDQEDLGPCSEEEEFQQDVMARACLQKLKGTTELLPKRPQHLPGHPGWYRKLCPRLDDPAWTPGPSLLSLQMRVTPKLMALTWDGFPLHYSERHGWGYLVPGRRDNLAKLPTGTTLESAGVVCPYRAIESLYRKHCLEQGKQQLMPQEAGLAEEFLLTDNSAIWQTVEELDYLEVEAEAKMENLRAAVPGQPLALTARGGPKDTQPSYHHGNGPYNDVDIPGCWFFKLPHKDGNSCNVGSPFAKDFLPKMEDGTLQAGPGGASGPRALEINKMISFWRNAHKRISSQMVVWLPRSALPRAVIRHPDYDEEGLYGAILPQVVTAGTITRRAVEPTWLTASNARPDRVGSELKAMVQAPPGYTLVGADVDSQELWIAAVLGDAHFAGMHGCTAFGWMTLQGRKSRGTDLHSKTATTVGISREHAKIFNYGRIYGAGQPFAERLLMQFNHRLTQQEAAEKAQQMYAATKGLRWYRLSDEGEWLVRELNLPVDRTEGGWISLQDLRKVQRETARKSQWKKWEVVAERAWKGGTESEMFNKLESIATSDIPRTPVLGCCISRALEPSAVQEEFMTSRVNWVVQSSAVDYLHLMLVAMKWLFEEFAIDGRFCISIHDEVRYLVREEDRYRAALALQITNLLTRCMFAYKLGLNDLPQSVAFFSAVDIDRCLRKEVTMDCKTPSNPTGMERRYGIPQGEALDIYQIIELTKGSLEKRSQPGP

in vitro [6] = settings: African green monkey
RSV A2 [7] = test: Time-of-addition assay and MOI dependency, CPE (methylene blue) in HEp-2; type: cell-based; settings: human respiratory syncytial virus
RSV A2 [8] = settings: human respiratory syncytial virus
RSV B 9320 = settings: human respiratory syncytial virus
RSV A 1997/12-35 = test: CPE 1, resazurin 384-well CPE assay in HEp-2; type: cell-based; settings: human respiratory syncytial virus
Experimental: as §1

RSV A 2000/3-4 = test: CPE 1, resazurin 384-well CPE assay in HEp-2; type: cell-based; settings: human respiratory syncytial virus
Experimental: as §1

RSV A 2001/2-20 = test: CPE 1, resazurin 384-well CPE assay in HEp-2; type: cell-based; settings: human respiratory syncytial virus
Experimental: as §1

RSV A Memphis 37c = test: CPE 1, resazurin 384-well CPE assay in HEp-2; type: cell-based; settings: human respiratory syncytial virus
Experimental: as §1

[9] = HEp-2, read-out: RSV titre in supernatant IC50 (0.3 Log PFUe reduction) (converted)
[10] = HEp-2, read-out: RSV titre in supernatant IC90 (1 Log PFUe reduction) (converted)
[11] = HEp-2, read-out: PCR IC50 (0.3 Log PFUe reduction) (converted)
[12] = HEp-2, read-out: PCR IC90 (1 Log PFUe reduction) (converted)

In the case of `Cc1cnc(N2CC3(CCOCC3)C2)c(C(=O)Nc2ccc(C(=O)N3CCc4cc(C(=O)Nc5c(C)cccc5F)sc4-c4ccccc43)cc2)c1` [PC786, N-(2-fluoro-6-methylphenyl)-6-(4-(5-methyl-2-(7-oxa-2-azaspiro[3.5]nonan-2-yl)nicotinamido)benzoyl)-5,6-dihydro-4H-benzo[b]thieno[2,3-d]azepine-2-carboxamide], the IC50 (RSV A2 [1]; 2 h exposure then 24-h washout before inoculation) is reported as 0.792 nM, the IC50 (RSV A2 [1]; nonwashout (sustained presence of drug)) is reported as 0.129 nM and the “IC90 or IC95” value [2] is reported as over 14 µM. The IC50 ([2]; Human alphaherpesvirus 1) was over 14 µM, the IC50 (RSVB 1000; [9]) was 10.3 nM and the IC90 (RSVB 1000; [10]) was 12.4 nM. For the same compound, the CC50 (in vitro [3]) was over 14 µM, the IC50 [4] was 0.14 to 3.2 nM and the IC50 (RSVA 492; [9]) was 0.43 nM. For the same compound, the IC90 (RSVA 492; [10]) was 0.5 nM, the IC50 (PIV3 (C243 strain)) was over 14 µM and the “IC90 or IC95” value (PIV3 (C243 strain)) was over 14 µM. For the same compound, the “inhibitory effects on human polymerase β” value (human polymerase β) was “no measurable inhibitory effects”, the “IC90 or IC95” value [5] was over 14 µM and the IC50 ([5]; unidentified influenza virus) was over 14 µM. For the same compound, the “inhibitory effects on human polymerase γ” value (human polymerase γ) was “no measurable inhibitory effects”, the CC50 (in vitro [6]) was over 14 µM and the IC50 (RSV A2 [7]; HEp-2, 24 h, MOI 0.02, n = 3, read-out: IC50 at treatment time 24 h postinoculation) was 0.85 nM. It also gave an IC50 (RSV A2 [7]; HEp-2, 24 h, MOI 0.1, n = 3, read-out: IC50 at treatment time 24 h postinoculation) of 1.09 nM, an IC50 (RSV A2 [7]; HEp-2, 24 h, MOI 1.0, n = 3, read-out: IC50 at treatment time 24 h postinoculation) of 0.5 nM and an IC50 (RSV A2 [7]; HEp-2, 48 h, read-out: IC50 at treatment time 48 h postinoculation, MOI 0.02, n = 3) of 0.94 nM. It also gave an IC50 (RSV A2 [7]; HEp-2, 48 h, read-out: IC50 at treatment time 48 h postinoculation, MOI 0.1, n = 3) of 2.36 nM, an IC50 (RSV A2 [7]; HEp-2, 48 h, read-out: IC50 at treatment time 48 h postinoculation, MOI 1.0, n = 3) of 0.46 nM and an IC50 (RSV A2 [7]; HEp-2, 72 h, MOI 0.02, n = 3, read-out: IC50 at treatment time 72 h postinoculation) of over 93.4 nM. It also gave an IC50 (RSV A2 [7]; HEp-2, 72 h, MOI 0.1, n = 3, read-out: IC50 at treatment time 72 h postinoculation) of over 140 nM, an IC50 (RSV A2 [7]; HEp-2, 72 h, MOI 1.0, n = 3, read-out: IC50 at treatment time 72 h postinoculation) of over 140 nM and an IC50 (RSV A2 [7]; HEp-2, MOI 0.02, n = 3, CPE at 144 h, read-out: IC50 at treatment time 0 h postinoculation) of 0.6 nM. The IC50 (RSV A2 [7]; HEp-2, MOI 0.1, n = 3, CPE at 144 h, read-out: IC50 at treatment time 0 h postinoculation) was 0.99 nM, the IC50 (RSV A2 [7]; HEp-2, MOI 1.0, n = 3, CPE at 144 h, read-out: IC50 at treatment time 0 h postinoculation) was 0.44 nM and the IC50 (RSV A2 [8]; [11]) was 1.52 nM. For the same compound, the IC90 (RSV A2 [8]; [12]) was 1.69 nM, the IC50 (RSV B 9320; [11]) was 30.3 nM and the IC90 (RSV B 9320; [12]) was 31 nM. It also gave an IC50 (RSV A 1997/12-35) of 0.35 nM, an IC50 (RSV A 2000/3-4) of 0.14 nM and an IC50 (RSV A 2001/2-20) of 0.53 nM. For the same compound, the IC50 (RSV A Memphis 37c) was 0.5 nM.
